Measurements: ChEMBL document CHEMBL5154863, “Design and synthesis of quinolinium-based derivatives targeting FtsZ for antibacterial evaluation and mechanistic study” (Eur J Med Chem, 2022)
Values after ≈ are worked out from the molar mass of the structure shown. Active and inactive are the calls of the source. The rule behind the calls is not given here.

Columns and labels:
Staphylococcus aureus [1] = assay: Antibacterial activity against methicillin-resistant Staphylococcus aureus ATCC BAA41 assessed as inhibition of bacterial growth incubated for 24 hrs by checker board assay; type: functional
Staphylococcus aureus [2] = assay: microbe, parasite or virus in culture; details: ATCC BAA41, 24 h
Description: Synergistic antibacterial activity against methicillin-resistant Staphylococcus aureus ATCC BAA41 assessed as inhibition of bacterial growth incubated for 24 hrs in presence of (E)-2-(4-(dimethylamino)styryl)-1-methyl-4-(4-methylpiperidin-1-yl)quinolin-1-ium iodide by checker board assay

Staphylococcus aureus [3] = assay: microbe, parasite or virus in culture; details: ATCC BAA41, 24 h; remark: listed apart in the source
Description: Synergistic antibacterial activity against methicillin-resistant Staphylococcus aureus ATCC BAA41 assessed as inhibition of bacterial growth incubated for 24 hrs in presence of (E)-4-(4-(dimethylamino)styryl)-1-methyl-2-(4-methylpiperidin-1-yl)quinolin-1-ium iodide by checker board assay

Staphylococcus aureus [4] = assay: microbe, parasite or virus in culture; details: ATCC BAA41, 24 h; remark: listed apart in the source
Description: Synergistic antibacterial activity against methicillin-resistant Staphylococcus aureus ATCC BAA41 assessed as inhibition of bacterial growth incubated for 24 hrs in presence of (E)-2-(4-(dimethylamino)styryl)-1-methyl-4-(piperidin-1-yl)quinolin-1-ium iodide by checker board assay

Staphylococcus aureus [5] = assay: microbe, parasite or virus in culture; details: ATCC BAA41, 24 h; remark: listed apart in the source
Description: Synergistic antibacterial activity against methicillin-resistant Staphylococcus aureus ATCC BAA41 assessed as inhibition of bacterial growth incubated for 24 hrs in presence of (E)-2-(4-(dimethylamino)styryl)-1-methyl-4-(pentylamino)quinolin-1-ium iodide by checker board assay

[6] = Ratio of MBC for bactericidal activity against Bacillus subtilis CMCC (B) 63501 to MIC for antibacterial activity against Bacillus subtilis CMCC (B) 63501; type: functional
[7] = Ratio of MBC for bactericidal activity against Enterococcus faecium ATCC 700221 to MIC for antibacterial activity against Enterococcus faecium ATCC 700221; type: functional
[8] = biological target: T1, Cell division protein FtsZ (Staphylococcus aureus) (UniProt P0A031); assay: Induction of Staphylococcus aureus FtsZ polymerization expressed in Escherichia coli BL21 (DE3) assessed as increase in absorbance at 2 to 8 ug/ml in presence of GTP by microplate reader method; details: dose 2-8 µg/ml, DDE = dose-dependent effect
T1 sequence (whole entry): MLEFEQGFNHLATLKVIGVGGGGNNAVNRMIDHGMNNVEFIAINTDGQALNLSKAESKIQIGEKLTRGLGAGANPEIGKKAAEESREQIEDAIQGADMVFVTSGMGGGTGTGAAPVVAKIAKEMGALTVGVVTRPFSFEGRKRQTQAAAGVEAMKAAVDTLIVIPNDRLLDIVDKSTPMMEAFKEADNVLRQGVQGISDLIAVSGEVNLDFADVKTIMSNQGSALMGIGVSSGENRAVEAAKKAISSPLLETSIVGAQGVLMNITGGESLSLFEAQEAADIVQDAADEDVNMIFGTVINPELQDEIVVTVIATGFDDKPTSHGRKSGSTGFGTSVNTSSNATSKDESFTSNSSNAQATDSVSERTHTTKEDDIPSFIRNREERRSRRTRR

Staphylococcus aureus [9] = assay: Antibacterial activity against Staphylococcus aureus ATCC 29213 assessed as inhibition of bacterial growth incubated for 20 to 24 hrs by broth micro dilution method; type: functional; details: time 20-24 hrs
Staphylococcus aureus [10] = assay: Antibacterial activity against methicillin-resistant Staphylococcus aureus ATCC 43300 assessed as inhibition of bacterial growth incubated for 20 to 24 hrs by broth micro dilution method; type: functional; details: time 20-24 hrs
Staphylococcus aureus [11] = assay: Antibacterial activity against methicillin-resistant Staphylococcus aureus ATCC 33592 assessed as inhibition of bacterial growth incubated for 20 to 24 hrs by broth micro dilution method; type: functional; details: time 20-24 hrs
Staphylococcus aureus [12] = assay: Antibacterial activity against methicillin-resistant Staphylococcus aureus ATCC BAA-1720 assessed as inhibition of bacterial growth incubated for 20 to 24 hrs by broth micro dilution method; type: functional; details: time 20-24 hrs
Staphylococcus aureus [13] = assay: Antibacterial activity against vancomycin-intermediate Staphylococcus aureus Mu50 assessed as inhibition of bacterial growth incubated for 20 to 24 hrs by broth micro dilution method; type: functional; details: time 20-24 hrs
[14] = test system: Staphylococcus epidermidis; assay: Antibacterial activity against Staphylococcus epidermidis ATCC 12228 assessed as inhibition of bacterial growth incubated for 20 to 24 hrs by broth micro dilution method; type: functional; details: time 20-24 hrs
Bacillus subtilis [15] = assay: Antibacterial activity against Bacillus subtilis CMCC (B) 63501 assessed as inhibition of bacterial growth incubated for 20 to 24 hrs by broth micro dilution method; type: functional; details: time 20-24 hrs
Enterococcus faecium [16] = assay: Antibacterial activity against Enterococcus faecium ATCC 49624 assessed as inhibition of bacterial growth incubated for 20 to 24 hrs by broth micro dilution method; type: functional; details: time 20-24 hrs
Enterococcus faecalis = assay: Antibacterial activity against Enterococcus faecalis ATCC 29212 assessed as inhibition of bacterial growth incubated for 20 to 24 hrs by broth micro dilution method; type: functional; details: time 20-24 hrs
Enterococcus faecium [17] = assay: Antibacterial activity against vancomycin resistant Enterococcus faecium ATCC 700221 assessed as inhibition of bacterial growth incubated for 20 to 24 hrs by broth micro dilution method; type: functional; details: time 20-24 hrs
Enterococcus faecium [18] = assay: Antibacterial activity against vancomycin-resistant Enterococcus faecium clinical isolate assessed as inhibition of bacterial growth incubated for 20 to 24 hrs by broth micro dilution method; type: functional; details: time 20-24 hrs
Escherichia coli [19] = assay: Antibacterial activity against Escherichia coli ATCC 25922 assessed as inhibition of bacterial growth incubated for 20 to 24 hrs by broth micro dilution method; type: functional; details: time 20-24 hrs
Escherichia coli [20] = assay: Antibacterial activity against Escherichia coli ATCC 8739 assessed as inhibition of bacterial growth incubated for 20 to 24 hrs by broth micro dilution method; type: functional; details: time 20-24 hrs
Escherichia coli [21] = assay: Antibacterial activity against NDM-1 expressing Escherichia coli ATCC BAA2469 assessed as inhibition of bacterial growth incubated for 20 to 24 hrs by broth micro dilution method; type: functional; details: time 20-24 hrs
Acinetobacter baumannii = assay: Antibacterial activity against multi-drug resistant Acinetobacter baumannii ATCC 19606 assessed as inhibition of bacterial growth incubated for 20 to 24 hrs by broth micro dilution method; type: functional; details: time 20-24 hrs
Pseudomonas aeruginosa = assay: Antibacterial activity against […] Pseudomonas aeruginosa ATCC 27853 assessed as inhibition of bacterial growth incubated for 20 to 24 hrs by broth micro dilution method; type: functional; details: time 20-24 hrs
Klebsiella pneumoniae = assay: Antibacterial activity against NDM-1 expressing Klebsiella pneumoniae ATCC BAA 2470 assessed as inhibition of bacterial growth incubated for 20 to 24 hrs by broth micro dilution method; type: functional; details: time 20-24 hrs
Bacillus subtilis [22] = assay: Bactericidal activity against Bacillus subtilis CMCC (B) 63501 assessed as inhibition of bacterial growth incubated for 24 hrs by resazurin dye based microtiter plate assay; type: functional
Staphylococcus aureus [23] = assay: Bactericidal activity against Staphylococcus aureus ATCC 29213 assessed as inhibition of bacterial growth incubated for 24 hrs by resazurin dye based microtiter plate assay; type: functional
Staphylococcus aureus [24] = assay: Bactericidal activity against Staphylococcus aureus ATCC 43300 assessed as inhibition of bacterial growth incubated for 24 hrs by resazurin dye based microtiter plate assay; type: functional
Enterococcus faecium [25] = assay: Bactericidal activity against Enterococcus faecium ATCC 700221 assessed as inhibition of bacterial growth incubated for 24 hrs by resazurin dye based microtiter plate assay; type: functional
[26] = Ratio of MBC for bactericidal activity against Staphylococcus aureus ATCC 29213 to MIC for antibacterial activity against Staphylococcus aureus ATCC 29213; type: functional
[27] = Ratio of MBC for bactericidal activity against Staphylococcus aureus ATCC 43300 to MIC for antibacterial activity against Staphylococcus aureus ATCC 43300; type: functional
Staphylococcus aureus [28] = assay: Antibacterial activity against methicillin-resistant Staphylococcus aureus ATCC BAA41 assessed as fractional inhibitory concentration index incubated for 24 hrs by checker board assay; type: functional
Staphylococcus aureus [29] = assay: Synergistic antibacterial activity against methicillin-resistant Staphylococcus aureus ATCC BAA41 assessed as inhibition of bacterial growth incubated for 24 hrs in presence of methicillin by checker board assay; type: functional
Bacillus subtilis [30] = assay: Induction of morphological changes in Bacillus subtilis CMCC (B) 63501 assessed as elongation of bacterial cell at 0.5 times MIC for 4 hrs (reference value: 3 to 5 um) by microscopic analysis; type: functional
Staphylococcus aureus [31] = assay: Induction of morphological changes in Staphylococcus aureus ATCC 29213 assessed as enlargement of cell size at 0.5 times MIC for 4 hrs by microscopic analysis; type: functional, organism-based
[32] = biological target: T1, Cell division protein FtsZ (Staphylococcus aureus); assay: Binding affinity to Staphylococcus aureus FtsZ assessed as equilibrium binding constant by isothermal titration calorimetry
[33] = biological target: T1, Cell division protein FtsZ (Staphylococcus aureus); assay: Binding affinity to Staphylococcus aureus FtsZ assessed as increase in alpha helix structure at 8 ug/ml incubated for 30 mins by circular dichroism method; details: dose 8.0 µg/ml
[34] = biological target: T1, Cell division protein FtsZ (Staphylococcus aureus); assay: Binding affinity to Staphylococcus aureus FtsZ assessed as decrease in beta turn structure at 8 ug/ml incubated for 30 mins by circular dichroism method; details: dose 8.0 µg/ml
[35] = biological target: T1, Cell division protein FtsZ (Staphylococcus aureus); assay: Binding affinity to Staphylococcus aureus FtsZ assessed as decrease in random coil structure at 8 ug/ml incubated for 30 mins by circular dichroism method; details: dose 8.0 µg/ml
[36] = biological target: T1, Cell division protein FtsZ (Staphylococcus aureus); assay: Binding affinity to Staphylococcus aureus FtsZ assessed as decrease in other structure at 8 ug/ml incubated for 30 mins by circular dichroism method; details: dose 8.0 µg/ml
[37] = biological target: T2, Cell division protein FtsZ (Staphylococcus aureus, UniProt P0A031); assay: Binding affinity to Staphylococcus aureus FtsZ assessed as dissociation constant by isothermal titration calorimetry
T2 sequence (P0A031 whole entry): T1 sequence (whole entry)

For `COc1cccc(OC)c1C(=O)N[C@@H]1C(=O)N2[C@@H]1SC(C)(C)[C@@H]2C(=O)O` [METHICILLIN], which MIC (Staphylococcus aureus [1]) is on record?
Its MIC is 1020 µg/mL.

What about the MIC (Staphylococcus aureus [2]) of the same compound?
Its MIC is 64 µg/mL (≈ 168 µM).

And the MIC (Staphylococcus aureus [3])?
Its MIC is 64 µg/mL (≈ 168 µM).

What about the MIC (Staphylococcus aureus [4]) of the same compound?
The MIC was 128 µg/mL (≈ 336 µM).

What about the MIC (Staphylococcus aureus [5]) of the same compound?
Its MIC is 256 µg/mL (≈ 673 µM).

For `CN(C)c1ccc(/C=C/c2cc(N3CCCCC3)c3ccccc3[n+]2C)cc1.[I-]`, which Ratio [6] is on record?
Its Ratio is 2.

What about the Ratio [7] of the same compound?
The Ratio was 4.

And the Activity [8]?
Its Activity is “Dde”.

What about the MIC (Staphylococcus aureus [9]) of the same compound?
The MIC was 1 µg/mL.

And the MIC (Staphylococcus aureus [10])?
Its MIC is 1 µg/mL.

And the MIC (Staphylococcus aureus [11])?
Its MIC is 1 µg/mL.

And the MIC (Staphylococcus aureus [12])?
Its MIC is 2 µg/mL.

And the MIC (Staphylococcus aureus [13])?
The MIC was 2 µg/mL.

And the MIC [14]?
The MIC was 1 µg/mL.

What about the MIC (Bacillus subtilis [15]) of the same compound?
Its MIC is 2 µg/mL.

What about the MIC (Enterococcus faecium [16]) of the same compound?
Its MIC is 8 µg/mL.

What about the MIC (Enterococcus faecalis) of the same compound?
The MIC was 4 µg/mL.

And the MIC (Enterococcus faecium [17])?
Its MIC is 1 µg/mL.

And the MIC (Enterococcus faecium [18])?
The MIC was 4 µg/mL.

And the MIC (Escherichia coli [19])?
The MIC was 16 µg/mL.

What about the MIC (Escherichia coli [20]) of the same compound?
The MIC was 64 µg/mL.

And the MIC (Escherichia coli [21])?
Its MIC is 64 µg/mL.

What about the MIC (Acinetobacter baumannii) of the same compound?
The MIC was 64 µg/mL.

What about the MIC (Pseudomonas aeruginosa) of the same compound?
The MIC was greater than 64 µg/mL.

What about the MIC (Klebsiella pneumoniae) of the same compound?
The MIC was greater than 64 µg/mL.

And the MBC (Bacillus subtilis [22])?
The MBC was 4 µg/mL.

And the MBC (Staphylococcus aureus [23])?
The MBC was 8 µg/mL.

What about the MBC (Staphylococcus aureus [24]) of the same compound?
Its MBC is 4 µg/mL.

What about the MBC (Enterococcus faecium [25]) of the same compound?
Its MBC is 4 µg/mL.

What about the Ratio [26] of the same compound?
The Ratio was greater than 4.

And the Ratio [27]?
Its Ratio is 4.

What about the “fractional inhibitory concentration index (FICI)” value (Staphylococcus aureus [28]) of the same compound?
The value was 0.25.

What about the MIC (Staphylococcus aureus [1]) of the same compound?
Its MIC is 16 µg/mL.

What about the MIC (Staphylococcus aureus [29]) of the same compound?
The MIC was 2 µg/mL.

And the Activity (Bacillus subtilis [30])?
The Activity was 30 um.

What about the Activity (Staphylococcus aureus [31]) of the same compound?
The Activity was “Active”.

And the Kb [32]?
Its Kb is 2.02 10^5/M.

What about the Activity [33] of the same compound?
Its Activity is “Active”.

What about the Activity [34] of the same compound?
The Activity was “Active”.

And the Activity [35]?
Its Activity is “Active”.

What about the Activity [36] of the same compound?
The Activity was “Active”.

And the Kd [37]?
Its Kd is 2490 nM.
